Where only a bound is given, the exact number is not on record here.

The test system of data set [1] is Glutamate NMDA receptor. As to the kind of experiment: Antagonist activity at NMDAR in embryonic cultures of rat cortical neuron assessed as inhibition of NMDA-induced calcium influx at 30 uM preincubated for 10 mins followed by NMDA addition by Fluo-4/AM dye based fluorescence assay relative to control. It is filed as tissue-based.
Data set [2] deals with Glutamate [NMDA] receptor. In words: Binding affinity to NMDAR (unknown origin). The data set is classed as protein-complex assay, Homo sapiens.
For another data set, the system named is HepG2. As to the kind of experiment: Cytotoxicity against human HepG2 cells assessed as reduction in cell viability by MTT assay. The data set is classed as cell-based. In general terms: Tetrazolium dyes change colour on reduction, which living cells bring about.
Data set [3] concerns the target Glutamate NMDA receptor. As to the kind of experiment: Antagonist activity at NMDAR in embryonic cultures of rat cortical neuron assessed as inhibition of NMDA-induced calcium influx preincubated for 10 mins followed by NMDA addition by Fluo-4/AM dye based fluorescence assay. It is filed as tissue-based.
For another data set, the system named is HEK293. As to the kind of experiment: Cytotoxicity against HEK293 cells assessed as reduction in cell viability by MTT assay. The data set is classed as cell-based. The conditions noted are these: Homo sapiens.
The nature of data set [4]: Permeability of compound in PBS at pH 7.4 incubated for 120 mins by UV spectroscopy assay based PAMPA-BBB assay. The data set is classed as ADME. The conditions noted are these: read-out: permeability.

Broadly, the IC50 is the point on the concentration scale where inhibition reaches its midpoint. On to `CS(=O)(=O)c1ccc([C@@]23CCC(=O)N2[C@H]2c4ccccc4C[C@H]2O3)cc1`, for which the IC50 result with Glutamate NMDA receptor [1] is given as “Not Active”.
For orientation: Ki means the equilibrium dissociation constant of an inhibitor or competing ligand from its target. High values mean lower affinity, low ones higher affinity. Take `c1ccc2c(c1)C[C@H]1N[C@@H]2c2ccccc21`: the affinity in data set [2] corresponds to a Ki of 0.0372 µM.
In the case of `O=C1CC[C@@]2(c3ccc(Cl)cc3)O[C@@H]3Cc4ccccc4[C@@H]3N12`, the IC50 was over 100 µM with HepG2, 17 µM at Glutamate NMDA receptor [3], 82 µM on Glutamate NMDA receptor [1] (read-out: IC50) and over 100 µM in the data set with HEK293. The Papp at 2 h in data set [4] turned out to be 19.2 ×10⁻⁶ cm/s.
For `C[C@H]1CC(=O)N2[C@H]3c4ccccc4C[C@H]3O[C@]12c1ccc(Cl)cc1`, the IC50 in the data set with HepG2 was over 100 µM; at Glutamate NMDA receptor [3], 17 µM; on Glutamate NMDA receptor [1] (read-out: IC50) it was 80 µM; in the data set on HEK293 it was over 100 µM.
With `O=C1CC[C@]2(c3ccc(Br)cc3)O[C@H]3Cc4ccccc4[C@@H]3N12`, the IC50 in the data set on HepG2 was over 100 µM; on Glutamate NMDA receptor [3], 11 µM; at Glutamate NMDA receptor [1] (read-out: IC50), 66 µM; in the data set on HEK293 it was over 100 µM. Moreover, the Papp at 2 h in data set [4] worked out at 11.2 ×10⁻⁶ cm/s.
As for `O=C1CC[C@]2(c3ccc(Cl)cc3)O[C@H]3Cc4ccccc4[C@@H]3N12`, the IC50 with HepG2 was over 100 µM; at Glutamate NMDA receptor [3], 13 µM; on Glutamate NMDA receptor [1] (read-out: IC50), 65 µM; in the data set with HEK293, over 100 µM. Besides, in data set [4], the Papp at 2 h turned out to be 15.8 ×10⁻⁶ cm/s.
As to `C[C@@H]1CC(=O)N2[C@H]3c4ccccc4C[C@@H]3O[C@@]12c1ccc(Cl)cc1`, the IC50 at Glutamate NMDA receptor [1] (read-out: IC50) stood at 32 µM.
Same read-out and setting: under `COc1ccc([C@@]23CCC(=O)N2[C@H]2c4ccccc4C[C@H]2O3)cc1` stands 4 µM; under `Cc1ccc([C@]23CCC(=O)N2C2c4ccccc4C[C@@H]2O3)cc1Cl` (single isomer, unassigned), 49 µM; under `O=C1CCC[C@@]2(c3ccccc3)O[C@@H]3Cc4ccccc4[C@@H]3N12`, 13 µM.
Turning to `C[C@H]1CC(=O)N2[C@H]3c4ccccc4C[C@@H]3O[C@@]12c1ccc(Cl)cc1`, the IC50 at Glutamate NMDA receptor [3] turned out to be 23 µM; at Glutamate NMDA receptor [1] (read-out: IC50), 62 µM.
On the same counts, the results for `Cc1ccc([C@@]23CCC(=O)N2[C@H]2c4ccccc4C[C@H]2O3)cc1` are 24 µM and 46 µM.
Regarding `O=C1CC[C@]2(c3ccc(F)cc3)O[C@H]3Cc4ccccc4[C@@H]3N12`, the IC50 was over 100 µM in the data set with HepG2, 15 µM on Glutamate NMDA receptor [3], 61 µM at Glutamate NMDA receptor [1] (read-out: IC50) and over 100 µM in the data set with HEK293.
As to `CC[C@@]1(c2ccccc2Cl)CCCCC1=O`, in data set [2], the affinity, expressed as Ki, was 0.659 µM.
For the molecule `C[C@@H]1CC(=O)N2[C@H]3c4ccccc4C[C@H]3O[C@]12c1ccc(Cl)cc1`, the IC50 in the data set with HepG2 worked out at 34 µM; at Glutamate NMDA receptor [3], 13 µM; on Glutamate NMDA receptor [1] (read-out: IC50) it was 69 µM; in the data set on HEK293, 46 µM.
With `O=C1CC[C@@]2(c3ccccc3)O[C@H]3Cc4ccccc4[C@@H]3N12`, the IC50 at Glutamate NMDA receptor [1] (read-out: IC50) worked out at 29 µM.
Take `O=C1CC[C@@]2(c3ccc(F)cc3)O[C@@H]3Cc4ccccc4[C@@H]3N12`: the IC50 in the data set with HepG2 is over 100 µM; at Glutamate NMDA receptor [3], 17 µM; on Glutamate NMDA receptor [1] (read-out: IC50), 56 µM; in the data set with HEK293, over 100 µM. Also, the Papp at 2 h in data set [4] was 24.2 ×10⁻⁶ cm/s.
Regarding `Cc1ccc([C@@]23CCC(=O)N2[C@H]2c4ccccc4C[C@H]2O3)cc1Cl`, the IC50 with HepG2 is over 100 µM; at Glutamate NMDA receptor [3], 12 µM; at Glutamate NMDA receptor [1] (read-out: IC50), 63 µM; in the data set on HEK293 it was over 100 µM.
Regarding `O=C1CC[C@@]2(c3ccc(Br)cc3)O[C@@H]3Cc4ccccc4[C@@H]3N12`, the IC50 in the data set on HepG2 is over 100 µM; at Glutamate NMDA receptor [3], 16 µM; on Glutamate NMDA receptor [1] (read-out: IC50) it was 73 µM; in the data set with HEK293 it was over 100 µM. The Papp at 2 h in data set [4] was 12.3 ×10⁻⁶ cm/s.
As to `COc1ccc([C@@]23CCC(=O)N2[C@H]2c4ccccc4CC2O3)cc1F` (single isomer, unassigned), the IC50 on Glutamate NMDA receptor [1] (read-out: IC50) turned out to be 13 µM.
Regarding `c1ccc(C2(N3CCCCC3)CCCCC2)cc1` [PHENCYCLIDINE], in data set [2], the Ki was 0.059 µM.
Same read-out and setting: under `N[C@@H](Cc1ccccn1)c1ccccc1` [LANICEMINE] stands 0.56 µM.
